From the supplement of paper PMC10307832

Key:
Assay in all cases: relative viability (nuclei count vs DMSO), 5 days (fraction); higher = more cells survive
TGX 221 + Crizotinib = compound: CC1=CN2C(=O)C=C(N=C2C(=C1)C(C)NC3=CC=CC=C3)N4CCOCC4 [TGX 221] + C[C@@H](Oc1cc(-c2cnn(C3CCNCC3)c2)cnc1N)c1c(Cl)ccc(F)c1Cl [Crizotinib] (partner 1 µM)
Procedure, shortened: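 The day after seeding in 1536-well plates, lung cancer cell lines were treated by pin tool with a single drug, or with a fixed anchor-drug dose together with five library-drug doses (not always all listed) in √10 steps. After 5 days, a combined fix-and-stain solution (final 0.05% Triton X-100, 1% formaldehyde, 1 ug/ml Hoechst) was added. Nuclei counted on 4× images gave relative viability as treated counts over vehicle counts, reported as the median of duplicate plates.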

TGX 221 = compound: CC1=CN2C(=O)C=C(N=C2C(=C1)C(C)NC3=CC=CC=C3)N4CCOCC4 [TGX 221]
Procedure, shortened: (§1)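 Viability is treated-well nuclei as a fraction of vehicle-well nuclei, reported as the median across plates. Before counting, lung cancer cell lines were kept overnight at 37 °C in 1536-well plates, pinned with five √10-spaced library-drug doses on vehicle-anchored plates, and left 5 days without medium change, then fixed, permeabilised and Hoechst-stained in one step, imaged at 4× and counted by MetaXpress. A plate passed only if control CV was below 25% and at least one doubling occurred.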

Ricolinostat = compound: O=C(CCCCCCNC(=O)c1cnc(N(c2ccccc2)c2ccccc2)nc1)NO [Ricolinostat]
Procedure, shortened: as §1

[1] = compound: C1=CC=C(C(=C1)C2=CC=C(C=C2)C3=CSC4=C3C(=C(C(=O)N4)C#N)O)O
Procedure, shortened: as §1

Cell Line: NCI-H1437
- relative viability (TGX 221 + Crizotinib; first compound 0.08 µM): 0.931
- relative viability (TGX 221 + Crizotinib; first compound 0.253 µM): 0.908
- relative viability (TGX 221 + Crizotinib; first compound 0.8 µM): 0.876
- relative viability (TGX 221 + Crizotinib; first compound 2.53 µM): 0.861
- relative viability (TGX 221 + Crizotinib; first compound 8 µM): 0.819
- relative viability (TGX 221; 0.08 µM): 1.02
- relative viability (TGX 221; 0.253 µM): 0.942
- relative viability (TGX 221; 0.8 µM): 0.998
- relative viability (TGX 221; 2.53 µM): 0.983
- relative viability (TGX 221; 8 µM): 0.929
- relative viability (Ricolinostat; 0.08 µM): 0.951
- relative viability (Ricolinostat; 0.253 µM): 0.993
- relative viability (Ricolinostat; 0.8 µM): 0.969
- relative viability (Ricolinostat; 2.53 µM): 0.763
- relative viability ([1]; 0.08 µM): 0.935
- relative viability ([1]; 0.253 µM): 1.11
- relative viability ([1]; 0.8 µM): 0.994
- relative viability ([1]; 2.53 µM): 1.14
- relative viability ([1]; 8 µM): 0.891

Cell Line: NCI-H1915
- relative viability (TGX 221 + Crizotinib; first compound 0.08 µM): 0.864
- relative viability (TGX 221 + Crizotinib; first compound 0.253 µM): 0.83
- relative viability (TGX 221 + Crizotinib; first compound 0.8 µM): 0.942
- relative viability (TGX 221 + Crizotinib; first compound 2.53 µM): 0.9
- relative viability (TGX 221 + Crizotinib; first compound 8 µM): 0.813
- relative viability (TGX 221; 0.08 µM): 0.937
- relative viability (TGX 221; 0.253 µM): 0.985
- relative viability (TGX 221; 0.8 µM): 0.993
- relative viability (TGX 221; 2.53 µM): 0.871
- relative viability (TGX 221; 8 µM): 0.994
- relative viability (Ricolinostat; 0.08 µM): 0.899
- relative viability (Ricolinostat; 0.253 µM): 0.968
- relative viability (Ricolinostat; 0.8 µM): 0.976
- relative viability (Ricolinostat; 2.53 µM): 0.862
- relative viability ([1]; 0.08 µM): 0.967
- relative viability ([1]; 0.253 µM): 1.06
- relative viability ([1]; 0.8 µM): 0.892
- relative viability ([1]; 2.53 µM): 1.05
- relative viability ([1]; 8 µM): 0.869

Cell Line: NCI-H441
- relative viability (TGX 221 + Crizotinib; first compound 0.08 µM): 0.732
- relative viability (TGX 221 + Crizotinib; first compound 0.253 µM): 0.82
- relative viability (TGX 221 + Crizotinib; first compound 0.8 µM): 0.657
- relative viability (TGX 221 + Crizotinib; first compound 2.53 µM): 0.62
- relative viability (TGX 221 + Crizotinib; first compound 8 µM): 0.697
- relative viability (TGX 221; 0.08 µM): 0.952
- relative viability (TGX 221; 0.253 µM): 0.955
- relative viability (TGX 221; 0.8 µM): 1.04
- relative viability (TGX 221; 2.53 µM): 1.08
- relative viability (TGX 221; 8 µM): 1.06
- relative viability (Ricolinostat; 0.08 µM): 0.793
- relative viability (Ricolinostat; 0.253 µM): 0.972
- relative viability (Ricolinostat; 0.8 µM): 1.01
- relative viability (Ricolinostat; 2.53 µM): 0.892
- relative viability ([1]; 0.08 µM): 0.928
- relative viability ([1]; 0.253 µM): 1.2
- relative viability ([1]; 0.8 µM): 1.22
- relative viability ([1]; 2.53 µM): 1.12
- relative viability ([1]; 8 µM): 0.63

Cell Line: SW 1573
- relative viability (TGX 221 + Crizotinib; first compound 0.08 µM): 0.723
- relative viability (TGX 221 + Crizotinib; first compound 0.253 µM): 0.72
- relative viability (TGX 221 + Crizotinib; first compound 0.8 µM): 0.74
- relative viability (TGX 221 + Crizotinib; first compound 2.53 µM): 0.769
- relative viability (TGX 221 + Crizotinib; first compound 8 µM): 0.756
- relative viability (TGX 221; 0.08 µM): 0.895
- relative viability (TGX 221; 0.253 µM): 0.876
- relative viability (TGX 221; 0.8 µM): 0.961
- relative viability (TGX 221; 2.53 µM): 0.906
- relative viability (TGX 221; 8 µM): 0.902
- relative viability (Ricolinostat; 0.08 µM): 0.936
- relative viability (Ricolinostat; 0.253 µM): 1.07
- relative viability (Ricolinostat; 0.8 µM): 0.896
- relative viability (Ricolinostat; 2.53 µM): 1.02
- relative viability ([1]; 0.08 µM): 1.06
- relative viability ([1]; 0.253 µM): 1.17
- relative viability ([1]; 0.8 µM): 1.01
- relative viability ([1]; 2.53 µM): 1.03
- relative viability ([1]; 8 µM): 0.738

Cell Line: NCI-H661
- relative viability (TGX 221 + Crizotinib; first compound 0.253 µM): 1.12
- relative viability (TGX 221 + Crizotinib; first compound 0.8 µM): 0.973
- relative viability (TGX 221 + Crizotinib; first compound 2.53 µM): 0.959
- relative viability (TGX 221 + Crizotinib; first compound 8 µM): 1.07
- relative viability (TGX 221; 0.08 µM): 1.02
- relative viability (TGX 221; 0.253 µM): 1.02
- relative viability (TGX 221; 0.8 µM): 0.971
- relative viability (TGX 221; 2.53 µM): 0.999
- relative viability (TGX 221; 8 µM): 0.846
- relative viability (Ricolinostat; 0.08 µM): 0.836
- relative viability (Ricolinostat; 0.253 µM): 0.981
- relative viability (Ricolinostat; 0.8 µM): 1.02
- relative viability (Ricolinostat; 2.53 µM): 0.803
- relative viability ([1]; 0.08 µM): 1.11
- relative viability ([1]; 0.253 µM): 1.03
- relative viability ([1]; 0.8 µM): 1.03
- relative viability ([1]; 2.53 µM): 0.97
- relative viability ([1]; 8 µM): 0.834

Cell Line: PC-3 [JPC-3]
- relative viability (TGX 221 + Crizotinib; first compound 0.08 µM): 0.988
- relative viability (TGX 221 + Crizotinib; first compound 0.253 µM): 0.991
- relative viability (TGX 221 + Crizotinib; first compound 0.8 µM): 1.04
- relative viability (TGX 221 + Crizotinib; first compound 2.53 µM): 0.912
- relative viability (TGX 221 + Crizotinib; first compound 8 µM): 0.994
- relative viability (TGX 221; 0.08 µM): 0.971
- relative viability (TGX 221; 0.253 µM): 1.05
- relative viability (TGX 221; 0.8 µM): 1.04
- relative viability (TGX 221; 2.53 µM): 0.998
- relative viability (TGX 221; 8 µM): 1.03
- relative viability (Ricolinostat; 0.08 µM): 0.801
- relative viability (Ricolinostat; 0.253 µM): 0.977
- relative viability (Ricolinostat; 0.8 µM): 1.01
- relative viability (Ricolinostat; 2.53 µM): 0.883
- relative viability ([1]; 0.08 µM): 0.898
- relative viability ([1]; 0.253 µM): 1.11
- relative viability ([1]; 0.8 µM): 0.959
- relative viability ([1]; 2.53 µM): 1.08
- relative viability ([1]; 8 µM): 0.944

Cell Line: 201T
- relative viability (TGX 221 + Crizotinib; first compound 0.253 µM): 1.07
- relative viability (TGX 221 + Crizotinib; first compound 0.8 µM): 1.01
- relative viability (TGX 221 + Crizotinib; first compound 2.53 µM): 0.993
- relative viability (TGX 221 + Crizotinib; first compound 8 µM): 0.985
- relative viability (TGX 221; 0.08 µM): 0.911
- relative viability (TGX 221; 0.253 µM): 0.959
- relative viability (TGX 221; 0.8 µM): 0.979
- relative viability (TGX 221; 2.53 µM): 0.865
- relative viability (TGX 221; 8 µM): 0.876
- relative viability (Ricolinostat; 0.08 µM): 0.876
- relative viability (Ricolinostat; 0.253 µM): 0.978
- relative viability (Ricolinostat; 0.8 µM): 1.02
- relative viability (Ricolinostat; 2.53 µM): 0.93
- relative viability ([1]; 0.08 µM): 0.945
- relative viability ([1]; 0.253 µM): 0.964
- relative viability ([1]; 0.8 µM): 0.932
- relative viability ([1]; 2.53 µM): 0.94
- relative viability ([1]; 8 µM): 1.02

Cell Line: LK-2
- relative viability (TGX 221 + Crizotinib; first compound 0.08 µM): 0.252
- relative viability (TGX 221 + Crizotinib; first compound 0.253 µM): 0.212
- relative viability (TGX 221 + Crizotinib; first compound 0.8 µM): 0.235
- relative viability (TGX 221 + Crizotinib; first compound 2.53 µM): 0.213
- relative viability (TGX 221 + Crizotinib; first compound 8 µM): 0.269
- relative viability (TGX 221; 0.08 µM): 0.986
- relative viability (TGX 221; 0.253 µM): 0.878
- relative viability (TGX 221; 0.8 µM): 0.914
- relative viability (TGX 221; 2.53 µM): 0.996
- relative viability (TGX 221; 8 µM): 1.1
- relative viability (Ricolinostat; 0.08 µM): 0.967
- relative viability (Ricolinostat; 0.253 µM): 0.999
- relative viability (Ricolinostat; 0.8 µM): 1
- relative viability (Ricolinostat; 2.53 µM): 0.899
- relative viability ([1]; 0.08 µM): 0.724
- relative viability ([1]; 0.253 µM): 0.922
- relative viability ([1]; 0.8 µM): 1.11
- relative viability ([1]; 2.53 µM): 0.918
- relative viability ([1]; 8 µM): 0.71

Cell Line: NCI-H727
- relative viability (TGX 221 + Crizotinib; first compound 0.08 µM): 0.879
- relative viability (TGX 221 + Crizotinib; first compound 0.253 µM): 0.792
- relative viability (TGX 221 + Crizotinib; first compound 0.8 µM): 0.663
- relative viability (TGX 221 + Crizotinib; first compound 2.53 µM): 0.861
- relative viability (TGX 221 + Crizotinib; first compound 8 µM): 0.821
- relative viability (TGX 221; 0.08 µM): 0.885
- relative viability (TGX 221; 0.253 µM): 0.887
- relative viability (TGX 221; 0.8 µM): 0.948
- relative viability (TGX 221; 2.53 µM): 0.898
- relative viability (TGX 221; 8 µM): 0.97
- relative viability (Ricolinostat; 0.08 µM): 0.763
- relative viability (Ricolinostat; 0.253 µM): 1.11
- relative viability (Ricolinostat; 0.8 µM): 1
- relative viability (Ricolinostat; 2.53 µM): 0.81
- relative viability ([1]; 0.08 µM): 1.02
- relative viability ([1]; 0.253 µM): 0.92
- relative viability ([1]; 0.8 µM): 0.987
- relative viability ([1]; 2.53 µM): 0.808
- relative viability ([1]; 8 µM): 0.842

Cell Line: IA-LM
- relative viability (TGX 221 + Crizotinib; first compound 0.08 µM): 0.879
- relative viability (TGX 221 + Crizotinib; first compound 0.253 µM): 0.711
- relative viability (TGX 221 + Crizotinib; first compound 0.8 µM): 0.903
- relative viability (TGX 221 + Crizotinib; first compound 2.53 µM): 0.864
- relative viability (TGX 221 + Crizotinib; first compound 8 µM): 0.788
- relative viability (TGX 221; 0.08 µM): 0.883
- relative viability (TGX 221; 0.253 µM): 0.96
- relative viability (TGX 221; 0.8 µM): 1.07
- relative viability (TGX 221; 2.53 µM): 0.981
- relative viability (TGX 221; 8 µM): 0.966
- relative viability (Ricolinostat; 0.08 µM): 0.657
- relative viability (Ricolinostat; 0.253 µM): 0.924
- relative viability (Ricolinostat; 0.8 µM): 0.797
- relative viability (Ricolinostat; 2.53 µM): 0.777
- relative viability ([1]; 0.08 µM): 0.725
- relative viability ([1]; 0.253 µM): 1.45
- relative viability ([1]; 0.8 µM): 1.04
- relative viability ([1]; 2.53 µM): 1.15
- relative viability ([1]; 8 µM): 0.655
